Data taken from patent EP1383793B1 (priority 2000, dated 2001).
pKd: −log10 of the molar value. Residues, ends and D or L forms follow the SMILES beside them. No end group written: not given here. *: point of attachment. Biotin = O=C1N[C@H]2[C@H](CS[C@H]2CCCCC(=O)*)N1

molecular target: T1, human insulin receptor (HIR) (Homo sapiens, UniProt P06213); assay: 125I-insulin competition binding assay on solubilised purified receptor; settings: read-out: HIR affinity
T1 construct: made in house
T1 sequence (P06213 28-758 limits assumed): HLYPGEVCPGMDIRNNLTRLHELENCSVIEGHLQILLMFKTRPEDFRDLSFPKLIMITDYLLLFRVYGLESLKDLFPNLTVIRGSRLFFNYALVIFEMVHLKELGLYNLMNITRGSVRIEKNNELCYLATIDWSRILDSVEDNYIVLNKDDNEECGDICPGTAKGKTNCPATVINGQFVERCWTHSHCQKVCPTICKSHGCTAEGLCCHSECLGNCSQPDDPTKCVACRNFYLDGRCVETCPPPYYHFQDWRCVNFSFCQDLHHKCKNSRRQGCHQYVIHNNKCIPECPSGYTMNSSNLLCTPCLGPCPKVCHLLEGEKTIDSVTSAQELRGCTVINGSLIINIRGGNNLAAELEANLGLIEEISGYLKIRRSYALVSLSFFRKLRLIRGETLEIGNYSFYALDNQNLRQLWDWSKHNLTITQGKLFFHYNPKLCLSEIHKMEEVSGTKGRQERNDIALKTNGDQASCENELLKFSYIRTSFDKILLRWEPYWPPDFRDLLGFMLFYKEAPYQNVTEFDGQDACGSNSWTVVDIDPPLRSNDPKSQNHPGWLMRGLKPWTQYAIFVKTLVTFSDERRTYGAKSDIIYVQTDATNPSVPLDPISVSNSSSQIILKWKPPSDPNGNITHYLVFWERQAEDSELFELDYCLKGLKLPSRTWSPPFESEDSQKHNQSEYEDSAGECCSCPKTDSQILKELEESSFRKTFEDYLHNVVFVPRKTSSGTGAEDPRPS
T1 sequence (P06213 763-1382 limits assumed): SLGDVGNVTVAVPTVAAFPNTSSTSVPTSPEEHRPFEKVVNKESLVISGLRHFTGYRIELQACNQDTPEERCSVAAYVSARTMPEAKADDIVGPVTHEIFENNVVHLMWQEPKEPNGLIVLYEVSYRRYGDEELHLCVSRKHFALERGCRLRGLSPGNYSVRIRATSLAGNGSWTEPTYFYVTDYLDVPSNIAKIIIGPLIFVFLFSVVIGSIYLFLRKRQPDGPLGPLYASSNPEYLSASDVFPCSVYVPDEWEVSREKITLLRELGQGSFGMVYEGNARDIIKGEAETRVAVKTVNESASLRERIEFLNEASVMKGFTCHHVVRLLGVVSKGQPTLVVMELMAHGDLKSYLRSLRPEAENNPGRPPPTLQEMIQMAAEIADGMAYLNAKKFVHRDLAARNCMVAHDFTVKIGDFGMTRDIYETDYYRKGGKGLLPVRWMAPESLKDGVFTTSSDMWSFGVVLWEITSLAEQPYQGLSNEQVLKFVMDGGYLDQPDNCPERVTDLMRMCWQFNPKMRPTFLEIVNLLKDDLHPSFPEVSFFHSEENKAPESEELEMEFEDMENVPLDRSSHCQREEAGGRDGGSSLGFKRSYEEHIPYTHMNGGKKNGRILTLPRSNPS

pKd	Compound
6.24	CC(C)[C@H](NC(=O)[C@H](Cc1ccccc1)NC(=O)[C@H](Cc1c[nH]c2ccccc12)NC(=O)[C@H](CC(=O)O)NC(=O)[C@H](Cc1ccc(O)cc1)NC(=O)[C@H](Cc1ccccc1)NC(=O)[C@H](CC(N)=O)NC(=O)[C@H](CCC(=O)O)NC(=O)[C@H](Cc1c[nH]cn1)NC(=O)[C@@H](N)Cc1ccccc1)C(=O)N[C@@H](CCCNC(=N)N)C(=O)N[C@@H](CCC(N)=O)C(=O)N[C@H](C(=O)N[C@@H](CO)C(=O)N[C@@H](CCCCN)C(=O)N[C@@H](CCCCN)C(=O)N[C@@H](CNC(=O)CON=CCCCCC=NOCC(=O)NC[C@H](NC(=O)[C@H](CCCCN)NC(=O)[C@H](CCCCN)NC(=O)[C@H](CO)NC(=O)[C@@H](NC(=O)[C@H](CCC(N)=O)NC(=O)[C@H](CCCNC(=N)N)NC(=O)[C@@H](NC(=O)[C@H](Cc1ccccc1)NC(=O)[C@H](Cc1c[nH]c2ccccc12)NC(=O)[C@H](CC(=O)O)NC(=O)[C@H](Cc1ccc(O)cc1)NC(=O)[C@H](Cc1ccccc1)NC(=O)[C@H](CC(N)=O)NC(=O)[C@H](CCC(=O)O)NC(=O)[C@H](Cc1c[nH]cn1)NC(=O)[C@@H](N)Cc1ccccc1)C(C)C)C(C)C)C(N)=O)C(N)=O)C(C)C [Clone S169]
5.54	CC(C)[C@H](NC(=O)[C@H](Cc1ccccc1)NC(=O)[C@H](Cc1c[nH]c2ccccc12)NC(=O)[C@H](CC(=O)O)NC(=O)[C@H](Cc1ccc(O)cc1)NC(=O)[C@H](Cc1ccccc1)NC(=O)[C@H](CC(N)=O)NC(=O)[C@H](CCC(=O)O)NC(=O)[C@H](Cc1c[nH]cn1)NC(=O)[C@H](Cc1ccccc1)NC(=O)CNC(=O)[C@@H](N)CS)C(=O)N[C@@H](CCCNC(=N)N)C(=O)N[C@@H](CCC(N)=O)C(=O)N[C@H](C(=O)N[C@@H](CO)C(=O)N[C@@H](CCCCN)C(=O)N[C@@H](CCCCN)C(N)=O)C(C)C [Clone S171]
5.32	CC(C)[C@H](NC(=O)[C@H](Cc1ccccc1)NC(=O)[C@H](Cc1c[nH]c2ccccc12)NC(=O)[C@H](CC(=O)O)NC(=O)[C@H](Cc1ccc(O)cc1)NC(=O)[C@H](Cc1ccccc1)NC(=O)[C@H](CC(N)=O)NC(=O)[C@H](CCC(=O)O)NC(=O)[C@H](Cc1c[nH]cn1)NC(=O)[C@@H](N)Cc1ccccc1)C(=O)N[C@@H](CCCNC(=N)N)C(=O)N[C@@H](CCC(N)=O)C(=O)N[C@H](C(=O)N[C@@H](CO)C(=O)N[C@@H](CCCCN)C(=O)N[C@@H](CCCCN)C(=O)N[C@@H](CNC(=O)CON=CCCCCCCC=NOCC(=O)NC[C@H](NC(=O)[C@H](CCCCN)NC(=O)[C@H](CCCCN)NC(=O)[C@H](CO)NC(=O)[C@@H](NC(=O)[C@H](CCC(N)=O)NC(=O)[C@H](CCCNC(=N)N)NC(=O)[C@@H](NC(=O)[C@H](Cc1ccccc1)NC(=O)[C@H](Cc1c[nH]c2ccccc12)NC(=O)[C@H](CC(=O)O)NC(=O)[C@H](Cc1ccc(O)cc1)NC(=O)[C@H](Cc1ccccc1)NC(=O)[C@H](CC(N)=O)NC(=O)[C@H](CCC(=O)O)NC(=O)[C@H](Cc1c[nH]cn1)NC(=O)[C@@H](N)Cc1ccccc1)C(C)C)C(C)C)C(N)=O)C(N)=O)C(C)C [Clone S172]
5.42	AAAAFYDWFAAAAAKK-NH2 [Clone S168]
< 4.70	AFYDWF-NH2 [Clone S182]
< 4.70	AFYDWFA-NH2 [Clone S181]
< 4.70	AFYDWFAK-NH2 [Clone S180]
< 4.70	AFYEWFAKK-NH2 [Clone S214]
< 4.70	AFYGWFAKK-NH2 [Clone S215]
< 4.70	AFYKWFAKK-NH2 [Clone S216]
6.23	AHENFYDWFVRQVSKK-NH2 [Clone S113]
< 4.70	ALEEEWAWVQVRSIRSGLPL-NH2 [Clone S284]
< 4.70	APVSTEELRWGALLFGQWAG-NH2 [Clone S283]
< 4.70	DPFYQGLWEWLRESGEE-NH2 [Clone S289]
6.21	FAENFYDWFVRQVSKK-NH2 [Clone S112]
6.12	FHENFYDWFVAQVSKK-NH2 [Clone S108]
6.00	FHENFYDWFVRAVSKK-NH2 [Clone S107]
6.38	FHENFYDWFVRQASKK-NH2 [Clone S106]
6.51	FHENFYDWFVRQVAKK-NH2 [Clone S105]
< 4.70	FYDWF-NH2 [Clone S165]
< 4.70	FYDWFKK-NH2 [Clone S166]
< 4.70	GFREGQRWYWFVAQVT-NH2 [Clone S278]

same assay, conditions: read-out: Kd (µM) HIR

Kd	Compound
0.84 µM	CC(C)C[C@H](NC(=O)[C@H](C)NC(=O)[C@H](CO)NC(=O)[C@H](CCC(=O)O)NC(=O)[C@H](Cc1ccccc1)NC(=O)[C@H](Cc1c[nH]c2ccccc12)NC(=O)[C@H](CCC(=O)O)NC(=O)[C@H](Cc1ccc(O)cc1)NC(=O)[C@H](Cc1ccccc1)NC(=O)[C@@H](NC(=O)CNC(=O)CNC(=O)CNC(=O)[C@H](CCCNC(=N)N)NC(=O)[C@@H](N)CCCCN)[C@@H](C)O)C(=O)N[C@@H](CCCNC(=N)N)C(=O)N[C@@H](CCCCN)C(=O)N[C@@H](Cc1c[nH]cn1)C(=O)NCC(=O)N[C@@H](C)C(=O)NCC(=O)N[C@@H](CCCCN)C(=O)N[C@@H](CCCCNC(=O)CCCC[C@@H]1SC[C@@H]2NC(=O)N[C@@H]21)C(N)=O [Clone D110] (H-KRGGGTFYEWFESALRKHGAGKK(Biotin)-NH2)

system: adipocytes; assay: 3H-glucose uptake into adipocytes (fat cell assay, FFC); assay type: cell-based, Mouse; set-up: key to FFC: 0 is no effect; + is agonist; - is antagonist; settings: not given

Compound	FFC
CC(C)C[C@H](NC(=O)[C@H](CCC(=O)O)NC(=O)[C@H](C)NC(=O)[C@@H](NC(=O)[C@H](Cc1ccccc1)NC(=O)[C@H](Cc1c[nH]c2ccccc12)NC(=O)[C@H](CC(=O)O)NC(=O)[C@H](Cc1ccc(O)cc1)NC(=O)[C@H](Cc1ccccc1)NC(=O)[C@H](CC(N)=O)NC(=O)[C@H](C)NC(=O)[C@H](CC(N)=O)NC(=O)[C@H](CCCNC(=N)N)NC(=O)[C@H](CCC(N)=O)NC(=O)[C@H](CC(C)C)NC(=O)[C@@H](N)Cc1c[nH]c2ccccc12)C(C)C)C(=O)NCC(=O)O [Clone S237]	0
CC(C)C[C@H](NC(=O)[C@H](CCC(=O)O)NC(=O)[C@H](C)NC(=O)[C@@H](NC(=O)[C@H](Cc1ccccc1)NC(=O)[C@H](Cc1c[nH]c2ccccc12)NC(=O)[C@H](CC(=O)O)NC(=O)[C@H](Cc1ccc(O)cc1)NC(=O)[C@H](Cc1ccccc1)NC(=O)[C@H](CC(N)=O)NC(=O)[C@H](C)NC(=O)[C@H](CC(N)=O)NC(=O)[C@H](CCCNC(=N)N)NC(=O)[C@H](CCC(N)=O)NC(=O)[C@@H](N)CC(C)C)C(C)C)C(=O)NCC(=O)O [Clone S238]	0
CC(C)C[C@H](NC(=O)[C@H](CCC(=O)O)NC(=O)[C@H](C)NC(=O)[C@@H](NC(=O)[C@H](Cc1ccccc1)NC(=O)[C@H](Cc1c[nH]c2ccccc12)NC(=O)[C@H](CC(=O)O)NC(=O)[C@H](Cc1ccc(O)cc1)NC(=O)[C@H](Cc1ccccc1)NC(=O)[C@H](CC(N)=O)NC(=O)[C@H](C)NC(=O)[C@H](CC(N)=O)NC(=O)[C@H](CCCNC(=N)N)NC(=O)[C@@H](N)CCC(N)=O)C(C)C)C(=O)NCC(=O)O [Clone S239]	0
CC(C)C[C@@H]1NC(=O)[C@H](CO)NC(=O)[C@H](C)NC(=O)CNC(=O)CNC(=O)[C@H](Cc2ccccc2)NC(=O)[C@H](CC(C)C)NC(=O)[C@H](CCC(=O)O)NC(=O)[C@H](CCC(N)=O)NC(=O)[C@H](CC(C)C)NC(=O)[C@H](Cc2ccccc2)NC(=O)[C@@H](NC(=O)[C@H](CC(C)C)NC(=O)[C@@H]2CCCN2)CSSC[C@@H](C(=O)N[C@@H](CO)C(=O)NCC(N)=O)NC(=O)[C@H](Cc2ccc(O)cc2)NC(=O)CNC(=O)CNC1=O [Clone S262] (HELM PEPTIDE1{P.L.C.F.L.Q.E.L.F.G.G.A.S.L.G.G.Y.C.S.G.[am]}$PEPTIDE1,PEPTIDE1,3:R3-18:R3$$$V2.0; N-terminus assumed; bridges inferred)	0
CC[C@H](C)[C@@H]1NC(=O)[C@H](CCC(=O)O)NC(=O)[C@@H](NC(=O)[C@H](Cc2c[nH]c3ccccc23)NC(=O)[C@@H](NC(=O)[C@H](Cc2c[nH]c3ccccc23)NC(=O)[C@H](C)NC(=O)[C@H](CCCNC(=N)N)NC(=O)[C@H](CCC(=O)O)NC(=O)[C@H](CCC(N)=O)NC(=O)[C@H](CCC(=O)O)NC(=O)[C@H](CC(C)C)NC(=O)[C@@H](N)Cc2c[nH]c3ccccc23)[C@@H](C)CC)CSSC[C@@H](C(=O)N[C@@H](CCCNC(=N)N)C(=O)N[C@@H](C)C(N)=O)NC(=O)CNC(=O)[C@H](CO)NC(=O)CNC(=O)[C@H](CCC(N)=O)NC1=O [Clone S263] (HELM PEPTIDE1{W.L.E.Q.E.R.A.W.I.W.C.E.I.Q.G.S.G.C.R.A.[am]}$PEPTIDE1,PEPTIDE1,11:R3-18:R3$$$V2.0; N-terminus assumed; bridges inferred)	0
CC(C)C[C@@H]1NC(=O)[C@H](CCC(=O)O)NC(=O)[C@@H](NC(=O)[C@H](CC(C)C)NC(=O)[C@@H](NC(=O)[C@H](CCCNC(=N)N)NC(=O)[C@H](CC(C)C)NC(=O)[C@@H](N)CC(=O)O)C(C)C)CSSC[C@@H](C(=O)N[C@@H](CO)C(=O)N[C@@H](CCC(=O)O)C(N)=O)NC(=O)[C@H](Cc2ccc(O)cc2)NC(=O)CNC(=O)[C@H](CC(C)C)NC(=O)[C@H](C(C)C)NC(=O)[C@H](Cc2ccc(O)cc2)NC(=O)[C@H](C)NC(=O)CNC(=O)CNC(=O)[C@H](Cc2ccccc2)NC1=O [Clone S281] (HELM PEPTIDE1{D.L.R.V.L.C.E.L.F.G.G.A.Y.V.L.G.Y.C.S.E.[am]}$PEPTIDE1,PEPTIDE1,6:R3-18:R3$$$V2.0; N-terminus assumed; bridges inferred)	0
EFHENFYDWFVRQVSEE [Clone S115]	+
FHENAYDWFVRQVSKK [Clone S219]	0
FHENFADWFVRQVSKK [Clone S220]	0
FHENFTDWAVRQVSKK [Clone S223]	0
FHENFYDWFVRQVSK [Clone S158]	+
FQSLLEELVWGAPLFRYGTG [Clone S224]	0
GRVDWLQRNANFYDWFVA [Clone S250]	0
GRVDWLQRNANFYDWFVAE [Clone S249]	0
HDPFYSMMKSLLK [Clone S120]	0
HETFYSMIRSLAK [Clone S117]	0
HPPLSELKLFLIKK [Clone S124]	0
HPSTNQMLMKLFK [Clone S123]	0
HPTSKEIYAKLLK [Clone S122]	0
IQGWEPFYGWFDDWAQMFEE-NH2 [Clone S264]	0
NSFYEALRMLSSK [Clone S121]	0
SLNFYDALQLLAKK [Clone S119]	0
SSNFYQALMLLS [Clone S129]	0
